As usually defined, the IC50 is the concentration that inhibits the measured activity by half. As usually defined, the Kd is the equilibrium constant for the complex coming apart. A lower Kd goes with a tighter complex. What is called koff is a measure of how fast the partners let go of each other. As usually defined, the kon is the rate constant with which the complex forms.

Structures can show the parent of a compound that is named as a salt.

The record followed here is patent publication US11401278B2, “Macrocyclic indole derivatives” (The Broad Institute, Inc., priority 2017, dated 2022).

For one experiment, the target named is MCL1 protein (Homo sapiens (Human), UniProt Q07820). As to the kind of experiment: PIxEL: protein-protein interaction in permeabilized cells by ELISA (Assay 5). The class given is cell-based. The conditions noted are these: permeabilized RKO cells, Biotin-BIM peptide 0.2 μM, serum free; median. The method, then: PI×EL: Protein-Protein Interaction in Permeabilized Cells by ELISA
Most MCL1 protein molecules are localized at the mitochondria outer membrane and sequester pro-apoptotic proteins through binding of their BCL2 homology domain 3 (BH3 domain). MEB buffer (150 mM mannitol, 10 mM HEPES pH 7.5, 50 mM KCl, 20 μM EDTA, 20 μM EGTA, 5 mM potassium succinate, 0.1% protease-free BSA (SIGMA) with low dose digitonin (0.002%) permeabilizes plasma membrane while leaves live mitochondria, where MCL1 maintains its native localization and conformation. Unlike biophysical assays (e.g. TR-FRET) that use truncated recombinant MCL1 protein, this assay uses full length endogenous MCL1 protein at mitochondria outer membrane. It measures the interaction between MCL1 protein and biotinylated BIM BH3 peptide. Compounds can compete with BIM BH3 peptide to bind to MCL1 protein. This serum free assay measures the affinity between MCL1 protein and compound in permeabilized cells, therefore it is not affected by serum binding and cell permeability, and can measure the intrinsic compound affinity.
On day 1, RKO colon cancer cell line cells were plated at 0.8 million cells/ml, 100 μl/well in 96-well flat bottom TC plates (Corning). MCL1 antibody (Santa Cruz sc-12756) were diluted at 200 fold (final concentration 1 μg/ml) in carbonate buffer (Thermo Fisher Scientific, pH 9.6), and 50 μl of diluted antibody was added to each well of high bind ELISA plates (SARSTEDT). Each plate was tapped to make sure liquid covering entire bottom of wells and incubate at 37° C. overnight.
On the second day, MCL1 antibody was washed from ELISA plate. 250 μl Odyssey® Blocking Buffer (PBS) (Li-Cor) was added to each well, incubated at room temperature for at least 1 hour, then washed once with 250 μl 1×PBST. Plates with RKO cells were gently washed once with 100 μl/well PBS, once with 100 μl/well MEB buffer without digitonin, then 100 μl of MEB buffer with 0.002% digitonin was gently added to each well. Compounds were added with HP Tecan compound dispenser in 3-fold dilution series, highest dose 30 μM, 10-dose per compound in quadruplicates. Biotin-BIM peptide (synthesized by 21st Century) was added with HP Tecan compound dispenser at 0.2 μM immediately after the addition of compounds. Plates were rocked for 1 hour at room temperature. Then MEB buffer was aspirated and 50 μl of CHAPS buffer (50 mM Tris-Cl, pH 7.4, 150 mM NaCl, 1% CHAPS, 1 mM EDTA, 1 mM EGTA, cOmplete protease inhibitors (Roche), PhosSTOP (Roche)) was added to each well. Plates were rocked for 1 hour at 4° C., then 45 μl cell lysate from each well were transferred to ELISA plates coated with MCL1 antibody. Plates were incubated overnight in the cold room with rocking.
On the third day, ELISA plates were washed once with 250 μl 1×PBST. Streptavidin-poly-HRP (Thermo Fisher Scientific) was diluted to 20 ng/ml in Odyssey blocking buffer plus 0.05% Triton-100, and 100 μl was added to each well of the ELISA plate. Plates were incubated at room temperature for 1 hour with rocking, then washed with 100 μL 1×PBST for 3 times. Each SuperSignal ELISA Femto Maximum Sensitivity substrate was added to a 50-ml tube and mixed, then 100 μl of mixed substrate was added to each well. Plates were shaken for 1 minute then luminescence was measured by Envision plate reader […]. Signal of each well were normalized by no-compound control and no-cell control. IC50 was calculated using Graphic Pad PRISM software.
For orientation: An ELISA detects its analyte on a solid surface through an enzyme-linked reagent.

The next experiment has as its target MCL-1 (Homo sapiens (Human), UniProt Q07820, K194A/K197A/R201A). Briefly: Protein-compound interaction assay (SPR assay, Assay 8). The class given is binding. As to conditions: immobilized MBP-MCL-1, 25° C., geometric mean; for koff: read-out: koff; for kon: read-out: kon. From the text:
Assay 8 Protein-Compound Interaction Assay (SPR Assay)
The ability of the compounds described in this invention to bind to MCL-1 may be determined using surface plasmon resonance (SPR). This allows for the quantification of binding in terms of the equilibrium dissociation constant (KD [M]), as well as association and dissociation rate constants (kon [1/M 1/s] and koff [1/s], respectively). The measurements may be performed using Biacore® T200 or Biacore® S200 instruments (GE Healthcare).
For SPR measurements, recombinant MCL-1 (amino acids 173-321, N-terminal fused to Maltose Binding Protein (MBP) (SEQ ID 1) purchased from Beryllium (Bedford, Mass., USA)) was immobilized using standard amine coupling (Johnsson B et al, Anal Biochem. 1991 Nov. 1; 198(2):268-77). Briefly, carboxymethylated dextran biosensor chips (Series S Sensor Chip CMS, GE Healthcare) were activated with 1-ethyl-3-(3-dimethylaminopropyl)-carbodiimide hydrochloride (EDC) and N-hydroxysuccinimide (NHS) according to the supplier's instructions. MBP-MCL-1 was diluted in 1×PBS-P+ (GE Healthcare) and injected on the activated chip surface. Subsequently, a solution of 1 M ethanolamine-HCl (GE Healthcare) was injected to block unreacted groups, resulting in approximately 400-2500 response units (RU) of immobilized protein. A reference surface was generated by treatment with NHS-EDC and ethanolamine-HCl. Compounds were dissolved in 100% dimethylsulfoxide (DMSO) to a concentration of 10 mM and subsequently diluted in running buffer (1×PBS-P+ (GE Healthcare) [generated from PBS-P+ Buffer 10× (GE Healthcare): 0.2 M phosphate buffer with 27 mM KCl, 1.37 M NaCl and 0.5% Surfactant P20 (Tween 20).], 1% v/v DMSO). For SPR binding-measurements, serial dilutions of compound (eight dilution steps, typically ranging from 0.2 nM up to 1 μM) were injected over immobilized protein. […] Compounds were injected for 60 s followed by a dissociation time of up to 1000 s.
The double-referenced sensorgrams were fit to a simple reversible Langmuir 1:1 reaction mechanism as implemented in the Biacore® T200 and S200 evaluation software (T200 evaluation software version 2.0 and S200 evaluation software version 1.0, GE Healthcare).
(SPR reads the build-up and loss of mass on a sensor chip optically.)

Sequence of MCL-1 (Q07820 whole entry K194A/K197A/R201A, looked up): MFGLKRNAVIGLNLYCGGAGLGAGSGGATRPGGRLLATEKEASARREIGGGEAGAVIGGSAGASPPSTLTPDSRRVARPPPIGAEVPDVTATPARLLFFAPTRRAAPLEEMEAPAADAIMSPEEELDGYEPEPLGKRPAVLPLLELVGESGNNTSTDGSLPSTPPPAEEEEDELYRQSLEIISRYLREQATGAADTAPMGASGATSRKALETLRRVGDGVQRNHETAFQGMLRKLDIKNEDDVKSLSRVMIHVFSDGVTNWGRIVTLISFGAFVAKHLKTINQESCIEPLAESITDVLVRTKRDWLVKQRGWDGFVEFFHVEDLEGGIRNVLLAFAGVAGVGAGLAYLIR
Sequence of MCL1 protein (Q07820 whole entry, the tested form may be a part): as the sequence (Q07820 whole entry K194A/K197A/R201A, looked up) above, with A194K, A197K, A201R counted along it

Turning to `Cc1c2c(nn1C)C(CCN1CCOCC1)N(C)S(=O)(=O)CCCn1c(C(=O)O)c(CCCOc3cccc4ccccc34)c3cccc-2c31` (single isomer, unassigned; enantiomer 2) [Example 46, 2,3,14-trimethyl-15-[2-(morpholin-4-yl)ethyl]-7-{3-[(naphthalen-1-yl)oxy]propyl}-13,13-dioxo-10,11,12,13,14,15-hexahydro-2H-13lambda^6-pyrazolo[3′,4′:4,5][1,2,8]thiadiazacycloundecino[6,7,8-hi]indole-8-carboxylic acid N-ethylethanamine Salt (Enantiomer 2)], the IC50 on MCL1 protein worked out at 201 nM. For the same compound, on MCL-1, binding was characterised by a dissociation constant (Kd) of 2.8 nM, the koff is 0.016 s⁻¹ and the kon is 5.6e+06 M⁻¹ s⁻¹.

`CCc1c2c(nn1C)CN(C)S(=O)(=O)CCCn1c(C(=O)O)c(CCCOc3cccc4cc(F)ccc34)c3ccc(Cl)c-2c31` (single isomer, unassigned; enantiomer 1) [Example 36, (+)-4-chloro-3-ethyl-7-{3-[(6-fluoronaphthalen-1-yl)oxy]propyl}-2,14-dimethyl-13,13-dioxo-10,11,12,13,14,15-hexahydro-2H-13lambda^6-pyrazolo[3′,4′:4,5][1,2,8]thiadiazacycloundecino-[6,7,8-hi]indole-8-carboxylic acid (Enantiomer 1)] yielded an IC50 against MCL1 protein of 86.6 nM. At MCL-1, the affinity, expressed as Kd, was 4 nM; the koff amounted to 0.004 s⁻¹; the kon came out at 1e+06 M⁻¹ s⁻¹.

In turn, `Cc1c2c(nn1C)CN(C1CC1)S(=O)(=O)CCCn1c(C(=O)O)c(CCCOc3cccc4cc(F)ccc34)c3ccc(Cl)c-2c31` (single isomer, unassigned; enantiomer 1) [Example 42, (−)-4-chloro-14-cyclopropyl-7-{3-[(6-fluoro-1-naphthyl)oxy]propyl}-2,3-dimethyl-11,12,14,15-tetrahydro-2H,10H-pyrazolo[3′,4′:4,5][1,2,8]thiadiazacycloundecino[6,7,8-hi]indole-8-carboxylic acid 13,13-dioxide N-diethylamine salt (Enantiomer 1)] had an IC50 against MCL1 protein of 157 nM. Moreover, on MCL-1, the Kd came to 7.6 nM, the koff is 0.016 s⁻¹ and the on-rate constant (kon) was found to be 2.1e+06 M⁻¹ s⁻¹.

With `CCc1c2c(nn1C)C(CCC1CCOCC1)N(C)S(=O)(=O)CCCn1c(C(=O)O)c(CCCOc3cccc4cc(F)ccc34)c3ccc(Cl)c-2c31` (single isomer, unassigned; enantiomer 1) [Example 61, (+)-4-chloro-3-ethyl-7-{3-[(6-fluoronaphthalen-1-yl)oxy]propyl}-2,14-dimethyl-15-[2-(oxan-4-yl)ethyl]-13,13-dioxo-10,11,12,13,14,15-hexahydro-2H-13lambda^6-pyrazolo[3′,4′:4,5][1,2,8]thiadiazacycloundecino[6,7,8-hi]indole-8-carboxylic acid (Enantiomer 1)], inhibition on MCL1 protein was half-maximal at 14.2 nM (IC50). Moreover, at MCL-1, the Kd came out at 1.9 nM, the koff turned out to be 0.0012 s⁻¹ and the kon is 590000 M⁻¹ s⁻¹.

Turning to `CCc1c2c(nn1C)CN(C)S(=O)(=O)CCCn1c(C(=O)O)c(CCCOc3cccc4cc(F)ccc34)c3ccc(F)c-2c31` (single isomer, unassigned; enantiomer 1) [Example 8, (+)-3-Ethyl-4-fluoro-7-{3-[(6-fluoronaphthalen-1-yl)oxy]propyl}-2,14-dimethyl-13,13-dioxo-10,11,12,13,14,15-hexahydro-2H-13λ^6-pyrazolo[3′,4′:4,5][1,2,8]thiadiazacycloundecino-[6,7,8-hi]indole-8-carboxylic acid (Enantiomer 1)], half-maximal inhibition against MCL1 protein (IC50) was put at 552 nM. For the same compound, at MCL-1, binding was put at a Kd of 3.6 nM, the koff came out at 0.008 s⁻¹ and the kon came out at 2.2e+06 M⁻¹ s⁻¹.

At MCL1 protein, `Cc1c2c(nn1C)CN(C)S(=O)(=O)CCCn1c(C(=O)O)c(CCCOc3cccc4cc(F)ccc34)c3ccc(F)c-2c31` (single isomer, unassigned; enantiomer 2) [Example 39, (+)-4-fluoro-7-{3-[(6-fluoronaphthalen-1-yl)oxy]propyl}-2,3,14-trimethyl-13,13-dioxo-10,11,12,13,14,15-hexahydro-2H-13lambda^6-pyrazolo[3′,4′:4,5][1,2,8]thiadiazacycloundecino-[6,7,8-hi]indole-8-carboxylic acid (Enantiomer 2)] gave an IC50 of 506 nM. Besides, at MCL-1, the Kd turned out to be 5.3 nM, the koff amounted to 0.018 s⁻¹ and the kon came to 3.4e+06 M⁻¹ s⁻¹.

With `Cc1c2c(nn1C)C(CCN1CCOCC1)N(C)S(=O)(=O)CCCn1c(C(=O)O)c(CCCOc3cccc4cc(F)ccc34)c3ccc(Cl)c-2c31` (single isomer, unassigned; enantiomer 2) [Example 67, 4-chloro-7-{3-[(6-fluoronaphthalen-1-yl)oxy]propyl}-2,3,14-trimethyl-15-[2-(morpholin-4-yl)ethyl]-13,13-dioxo-10,11,12,13,14,15-hexahydro-2H-13lambda^6-pyrazolo[3′,4′:4,5][1,2,8]thiadiazacycloundecino[6,7,8-hi]indole-8-carboxylic acid (Enantiomer 2)], at MCL1 protein, the IC50 was 8.74 nM.
